From ChEMBL document CHEMBL1201862, “PubChem BioAssay data set” (2004)
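Method: 48-hour compound exposure of cells in 96-well plates, five concentrations, linear interpolation of endpoints. GI50 is the concentration that inhibits growth by half.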 Activity calls are given as the source filed them. No stated cut-off is given here; in the data, active = GI50 up to about 1.1 µM and inactive = higher.

Key:
Assay in all cases: NCI tumour cell line growth inhibition, 48 h
NCI-H460 = test system: NCI-H460
KM12 = test system: KM12
CAKI-1 = test system: CAKI-1
SF-268 = test system: SF-268
SF-295 = test system: SF-295
SK-MEL-28 = test system: SK-MEL-28
HCT-116 = test system: HCT-116
NCI-H522 = test system: NCI-H522
RXF 393 = test system: RXF 393
DU-145 = test system: DU-145
HT-29 = test system: HT-29
LOX IMVI = test system: LOX IMVI
UACC-257 = test system: UACC-257
MDA-MB-231 = test system: MDA-MB-231
ACHN = test system: ACHN
U-251 = test system: U-251
PC-3 = test system: PC-3
A549 = test system: A549
UO-31 = test system: UO-31
MOLT-4 = test system: MOLT-4
M14 = test system: M14
HCC 2998 = test system: HCC 2998
A498 = test system: A498
SW-620 = test system: SW-620
HOP-92 = test system: HOP-92
IGROV-1 = test system: IGROV-1
K562 = test system: K562
EKVX = test system: EKVX
COLO 205 = test system: COLO 205
HOP-62 = test system: HOP-62
SK-OV-3 = test system: SK-OV-3
CCRF-CEM = test system: CCRF-CEM
MDA-N = test system: MDA-N
OVCAR-3 = test system: OVCAR-3
NCI-H23 = test system: NCI-H23
SF-539 = test system: SF-539
SN12C = test system: SN12C
HCT-15 = test system: HCT-15
OVCAR-5 = test system: OVCAR-5
RPMI-8226 = test system: RPMI-8226
SR = test system: SR
786-0 = test system: 786-0
SK-MEL-5 = test system: SK-MEL-5
Hs-578T = test system: Hs-578T
Malme-3M = test system: Malme-3M
MDA-MB-435 = test system: MDA-MB-435
UACC-62 = test system: UACC-62
TK-10 = test system: TK-10
SNB-19 = test system: SNB-19
T47D = test system: T47D
SK-MEL-2 = test system: SK-MEL-2
OVCAR-4 = test system: OVCAR-4
MCF7 = test system: MCF7
NCI-H226 = test system: NCI-H226
BT-549 = test system: BT-549
HL-60 = test system: HL-60
NCI/ADR-RES = test system: NCI/ADR-RES
OVCAR-8 = test system: OVCAR-8
SNB-75 = test system: SNB-75

Measured: GI50

O=C(CCc1ccc(O)c(O)c1)OCCc1ccccc1
inactive: NCI-H460 > 100 µM | KM12 > 100 µM | CAKI-1 78.3 µM | SF-268 > 100 µM | SF-295 > 100 µM | SK-MEL-28 > 100 µM | HCT-116 44.6 µM | NCI-H522 3.7 µM | RXF 393 > 67 µM | DU-145 > 100 µM | HT-29 > 100 µM | LOX IMVI 22.5 µM | UACC-257 > 82.2 µM | MDA-MB-231 67.6 µM | ACHN 59.7 µM | U-251 > 100 µM | PC-3 > 100 µM | A549 > 100 µM | UO-31 > 80.9 µM | MOLT-4 15.1 µM | M14 67.3 µM | HCC 2998 > 100 µM | A498 > 100 µM | SW-620 31.1 µM | HOP-92 > 21.2 µM | IGROV-1 54.1 µM | K562 20.4 µM | EKVX > 100 µM | COLO 205 42.7 µM | HOP-62 > 31.6 µM | SK-OV-3 > 100 µM | CCRF-CEM 4.86 µM | MDA-N 15.4 µM | OVCAR-3 29.6 µM | NCI-H23 > 65.3 µM | SF-539 18.6 µM | SN12C > 61.1 µM | OVCAR-5 > 100 µM | RPMI-8226 18.9 µM | SR 17.6 µM | 786-0 19.7 µM | SK-MEL-5 42.2 µM | Hs-578T > 100 µM | Malme-3M > 88.9 µM | MDA-MB-435 20.8 µM | UACC-62 45.4 µM | TK-10 > 100 µM | SNB-19 > 100 µM | T47D > 96.4 µM | SK-MEL-2 > 100 µM | OVCAR-4 29.6 µM | MCF7 > 62.1 µM | NCI-H226 > 100 µM | BT-549 > 100 µM | HL-60 3.85 µM | NCI/ADR-RES > 100 µM | OVCAR-8 23.1 µM
> 53 µM: HCT-15

CC(C)N1CCN(c2ccncc2S(=O)(=O)N2CCCCC2)CC1
inactive: NCI-H460 > 100 µM | KM12 > 100 µM | CAKI-1 > 100 µM | SF-268 > 100 µM | SF-295 > 100 µM | SK-MEL-28 > 100 µM | HCT-116 > 100 µM | NCI-H522 > 100 µM | RXF 393 > 100 µM | DU-145 > 100 µM | HT-29 > 100 µM | LOX IMVI > 100 µM | UACC-257 > 100 µM | MDA-MB-231 > 100 µM | ACHN > 100 µM | U-251 > 100 µM | PC-3 > 100 µM | SNB-75 > 100 µM | A549 > 100 µM | UO-31 > 100 µM | M14 > 100 µM | HCC 2998 > 100 µM | A498 > 100 µM | SW-620 > 100 µM | HOP-92 > 100 µM | IGROV-1 > 100 µM | K562 > 100 µM | EKVX > 100 µM | COLO 205 > 100 µM | HOP-62 > 100 µM | SK-OV-3 > 100 µM | MDA-N > 100 µM | OVCAR-3 > 100 µM | NCI-H23 > 100 µM | SF-539 > 100 µM | SN12C > 100 µM | OVCAR-5 > 100 µM | RPMI-8226 > 100 µM | SR > 100 µM | 786-0 > 100 µM | SK-MEL-5 > 100 µM | Hs-578T > 100 µM | Malme-3M > 100 µM | MDA-MB-435 > 100 µM | UACC-62 > 100 µM | TK-10 > 100 µM | SNB-19 > 100 µM | T47D > 100 µM | SK-MEL-2 > 100 µM | OVCAR-4 > 100 µM | MCF7 > 100 µM | NCI-H226 > 100 µM | BT-549 > 100 µM | HL-60 > 100 µM | NCI/ADR-RES > 100 µM | OVCAR-8 > 100 µM
> 100 µM: HCT-15
